Converted amounts (≈) assume the structure as drawn. The source made the active and inactive calls. The rule behind the calls is not given here. Numbered stars: 1 amine (or outer) side, 2 acyl side, 3 side chain; on linkers, the order of the positions; unused ones are H or OH. Square brackets hold non-standard residues; d marks the D form. Peptide text beside a SMILES is read from it. Pro(N-(CH2)3Gua,cis-4-NH-) = N=C(N)NCCCN1C[C@@H](N[*:1])C[C@H]1C(=O)[*:2]; Pro(cis-4-guanidino) = NC(N)=N[C@@H]1CN[C@H](C(=O)O)C1; X1 = NCCCN1C[C@@H](N[*:1])C[C@H]1C(=O)[*:2]; Ethylenediamine = C(CN[*:2])N[*:1]; βAla = NCCC(=O)O
How the values were obtained:
Escherichia coli [1] = assay: Disruption of cell wall in Escherichia coli NCIM 2688 at MIC after 60 mins by transmission electron microscopic method; type: functional, organism-based
[2] = Cytotoxicity against human HeLa cells assessed as cell viability at 1 to 10 uM after 24 hrs by MTT assay relative to control; type: cell-based; conditions: read-out: Activity
Pseudomonas aeruginosa = assay: Antibacterial activity against Pseudomonas aeruginosa NCIM 2036 after 8 hrs by serial dilution method; type: functional, organism-based; conditions: NCIM 2036, 8 h
[3] = system: Mycobacterium tuberculosis; assay: Antitubercular activity against dormant stage of Mycobacterium tuberculosis H37Ra ATCC 25177 after 12 days by XRMA; type: functional, organism-based; conditions: H37Ra ATCC 25177, 288 h
Staphylococcus aureus [4] = assay: Disruption of cell wall in Staphylococcus aureus NCIM 2010 at MIC after 60 mins by transmission electron microscopic method; type: functional, organism-based
[5] = system: Staphylococcus epidermidis; assay: Antibacterial activity against Staphylococcus epidermidis NCIM 5270 after 12 hrs by serial dilution method; type: functional, organism-based; conditions: NCIM 5270, 12 h
[6] = system: Mycobacterium tuberculosis; assay: Antitubercular activity against active stage of Mycobacterium tuberculosis H37Ra ATCC 25177 after 8 days by XRMA; type: functional, organism-based; conditions: H37Ra ATCC 25177, 192 h
Escherichia coli [7] = assay: Antibacterial activity against Escherichia coli NCIM 2688 after 8 hrs by serial dilution method; type: functional, organism-based; conditions: NCIM 2688, 8 h
Enterobacter sp. = assay: Antibacterial activity against Enterobacter sp. NCIM 5392 after 8 hrs by serial dilution method; type: functional, organism-based; conditions: NCIM 5392, 8 h
Bacillus subtilis = assay: Antibacterial activity against Bacillus subtilis NCIM 2079 after 12 hrs by serial dilution method; type: functional, organism-based; conditions: NCIM 2079, 12 h
Staphylococcus aureus [8] = assay: Antibacterial activity against Staphylococcus aureus NCIM 2010 after 12 hrs by serial dilution method; type: functional, organism-based; conditions: NCIM 2010, 12 h

Compound | Activity (Escherichia coli [1]) | viability at 24 h, up to 10 µM [2] | IC50 (Pseudomonas aeruginosa) | MIC (Pseudomonas aeruginosa) | IC50 [3] | MIC [3] | Activity (Staphylococcus aureus [4]) | IC50 [5] | MIC [5] | IC50 [6] | MIC [6] | IC50 (Escherichia coli [7]) | MIC (Escherichia coli [7]) | IC50 (Enterobacter sp.) | MIC (Enterobacter sp.) | IC50 (Bacillus subtilis) | MIC (Bacillus subtilis) | IC50 (Staphylococcus aureus [8]) | MIC (Staphylococcus aureus [8])
CC(=O)N[C@@H](Cc1ccccc1)C(=O)NCC(=O)N[C@@H](CCCNC(=N)N)C(=O)N[C@@H](CCCCN)C(=O)N[C@@H](CCCCN)C(=O)N[C@@H](CCCNC(=N)N)C(=O)N[C@@H](CCCNC(=N)N)C(=O)N[C@@H](CCC(N)=O)C(=O)N[C@@H](CCCNC(=N)N)C(=O)N[C@@H](CCCNC(=N)N)C(=O)N[C@H]1C[C@@H](C(=O)NCCC(N)=O)N(CCCNC(=N)N)C1 (Ac-FGRKKRRQRR[Pro(N-(CH2)3Gua,cis-4-NH-)][βAla]-NH2) | Active | ≥ 80% | 9.3 nM | 3.35 µM (≈ 5.73 µg/mL) | 1970 nM | 18.4 µM (≈ 31.5 µg/mL) | Active | 10 nM | 4.92 µM (≈ 8.42 µg/mL) | 2.42 µM | 27.6 µM (≈ 47.2 µg/mL) | 8 nM | 5.71 µM (≈ 9.77 µg/mL) | 13 nM | 18.9 µM (≈ 32.3 µg/mL) | 9.3 nM | 3.56 µM (≈ 6.09 µg/mL) | 7 nM | 8.47 µM (≈ 14.5 µg/mL)
CC(=O)N[C@@H](Cc1ccccc1)C(=O)NCC(=O)N[C@@H](CCCNC(=N)N)C(=O)N[C@@H](CCCCN)C(=O)N[C@@H](CCCCN)C(=O)N[C@H]1C[C@@H](C(=O)N[C@@H](CCCNC(=N)N)C(=O)N[C@@H](CCC(N)=O)C(=O)N[C@@H](CCCNC(=N)N)C(=O)N[C@@H](CCCNC(=N)N)C(=O)N[C@@H](CCCNC(=N)N)C(=O)NCCC(N)=O)N(CCCNC(=N)N)C1 (Ac-FGRKK[Pro(N-(CH2)3Gua,cis-4-NH-)]RQRRR[βAla]-NH2) |  | ≥ 80% | 5 nM | 2.67 µM (≈ 4.57 µg/mL) | 1280 nM | 13.8 µM (≈ 23.6 µg/mL) |  | 14 nM | 8.95 µM (≈ 15.3 µg/mL) | 3 µM | 20.1 µM (≈ 34.4 µg/mL) | 18 nM | 7.25 µM (≈ 12.4 µg/mL) | 14 nM | 4.7 µM (≈ 8.04 µg/mL) | 45 nM | 14.1 µM (≈ 24.1 µg/mL) | 23 nM | 5.25 µM (≈ 8.98 µg/mL)
CC(=O)N[C@@H](Cc1ccccc1)C(=O)NCC(=O)N[C@H]1C[C@@H](C(=O)N[C@@H](CCCCN)C(=O)N[C@@H](CCCCN)C(=O)N[C@@H](CCCNC(=N)N)C(=O)N[C@H]2C[C@@H](C(=O)N[C@@H](CCC(N)=O)C(=O)N[C@@H](CCCNC(=N)N)C(=O)N[C@@H](CCCNC(=N)N)C(=O)N[C@H]3C[C@@H](C(=O)NCCC(N)=O)N(CCCNC(=N)N)C3)N(CCCNC(=N)N)C2)N(CCCNC(=N)N)C1 (Ac-FG[Pro(N-(CH2)3Gua,cis-4-NH-)]KKR[Pro(N-(CH2)3Gua,cis-4-NH-)]QRR[Pro(N-(CH2)3Gua,cis-4-NH-)][βAla]-NH2) |  | ≥ 80% | 9.8 nM | 1.82 µM (≈ 3.31 µg/mL) | 2200 nM | 22.8 µM (≈ 41.5 µg/mL) |  | 6.5 nM | 9.44 µM (≈ 17.2 µg/mL) | 8.4 µM | 26.1 µM (≈ 47.5 µg/mL) | 18 nM | 7.58 µM (≈ 13.8 µg/mL) | 24 nM | 8.01 µM (≈ 14.6 µg/mL) | 10.4 nM | 2.81 µM (≈ 5.12 µg/mL) | 10.4 nM | 9.05 µM (≈ 16.5 µg/mL)
CC(=O)N[C@@H](Cc1ccccc1)C(=O)NCC(=O)N1C[C@@H](NC(=N)N)C[C@H]1C(=O)N[C@@H](CCCCN)C(=O)N[C@@H](CCCCN)C(=O)N[C@@H](CCCNC(=N)N)C(=O)N1C[C@@H](NC(=N)N)C[C@H]1C(=O)N[C@@H](CCC(N)=O)C(=O)N1C[C@@H](NC(=N)N)C[C@H]1C(=O)N[C@@H](CCCNC(=N)N)C(=O)N1C[C@@H](NC(=N)N)C[C@H]1C(=O)NCCC(N)=O (Ac-FG[Pro(cis-4-guanidino)]KKR[Pro(cis-4-guanidino)]Q[Pro(cis-4-guanidino)]R[Pro(cis-4-guanidino)][βAla]-NH2) |  | ≥ 80% | 63 nM | 26 µM (≈ 42.8 µg/mL) | 1910 nM | 29.4 µM (≈ 48.4 µg/mL) |  |  |  | 7.44 µM | 53.9 µM (≈ 88.8 µg/mL) | 223 nM | 27.7 µM (≈ 45.7 µg/mL) |  |  | 143 nM | 15.1 µM (≈ 24.9 µg/mL) | 92 nM | 5.59 µM (≈ 9.21 µg/mL)
CC(=O)N[C@@H](Cc1ccccc1)C(=O)NCC(=O)N[C@H]1C[C@@H](C(=O)N[C@@H](CCCCN)C(=O)N[C@@H](CCCCN)C(=O)N[C@@H](CCCNC(=N)N)C(=O)N[C@H]2C[C@@H](C(=O)N[C@@H](CCC(N)=O)C(=O)N[C@@H](CCCNC(=N)N)C(=O)N[C@@H](CCCNC(=N)N)C(=O)N[C@H]3C[C@@H](C(=O)NCCC(N)=O)N(CCCN)C3)N(CCCN)C2)N(CCCN)C1 (Ac-FG[X1]KKR[X1]QRR[X1][βAla]-NH2) |  | ≥ 80% | 8.2 nM | 2.32 µM (≈ 3.93 µg/mL) | 2240 nM | 26.3 µM (≈ 44.6 µg/mL) |  | 33 nM | 7.25 µM (≈ 12.3 µg/mL) | 4.5 µM | 43 µM (≈ 72.9 µg/mL) | 16.5 nM | 3.52 µM (≈ 5.97 µg/mL) | 12.4 nM | 4.65 µM (≈ 7.88 µg/mL) | 12.4 nM | 4.16 µM (≈ 7.05 µg/mL) | 10.6 nM | 3.02 µM (≈ 5.12 µg/mL)
CC(=O)N[C@@H](Cc1ccccc1)C(=O)NCC(=O)N[C@H]1C[C@@H](C(=O)N[C@@H](CCCCN)C(=O)N[C@@H](CCCCN)C(=O)N[C@@H](CCCNC(=N)N)C(=O)N[C@H]2C[C@@H](C(=O)N[C@@H](CCC(N)=O)C(=O)N[C@H]3C[C@@H](C(=O)N[C@@H](CCCNC(=N)N)C(=O)N[C@H]4C[C@@H](C(=O)NCCN)N(CCCN)C4)N(CCCN)C3)N(CCCN)C2)N(CCCN)C1 (Ac-FG[X1]KKR[X1]Q[X1]R[X1]-Ethylenediamine) |  | ≥ 80% | 7 nM | 2.2 µM (≈ 3.7 µg/mL) | 1420 nM | 18.3 µM (≈ 30.7 µg/mL) |  | 7 nM | 3.94 µM (≈ 6.62 µg/mL) | 4.92 µM | 34.4 µM (≈ 57.8 µg/mL) | 7 nM | 2.34 µM (≈ 3.93 µg/mL) | 11 nM | 4.51 µM (≈ 7.58 µg/mL) | 5.8 nM | 3.79 µM (≈ 6.37 µg/mL) | 13.4 nM | 3.02 µM (≈ 5.07 µg/mL)

— ChEMBL document CHEMBL4152250, “Antibacterial and anti-TB tat-peptidomimetics with improved efficacy and half-life” (Eur J Med Chem, 2018)
